The numbers were not newly measured in publication PMC2365120, “Antitumour Metallocenes: Effect of DMSO on the Stability of Cp2TiX2 and Implications for Anticancer Activity” (Metal-Based Drugs, 1998), which cites them from elsewhere.

SMILES strings stand for the structures. Like-named read-outs stand apart in the source and are kept apart here. A value given as a limit tells only on which side of the number the result lay.

For data set [1] the following is noted: for % Cp hydrolysis: Table 3, D2O (pD ~2-3), reaction time 24 h.
For data set [2] the following is noted: samples administered in 10%DMSO/saline.
The subject of data set [3] is fluid Ehrlich ascites tumour. The settings on record: for Optimum Cure Rate (%) / Optimum dose range: fluid Ehrlich ascites tumour, samples administered in 10%DMSO/saline.

As a reminder, the LD50 is the dose at which mortality reaches 50%. With `[Cl-].[Cl-].[Ti+4].c1cc[cH-]c1.c1cc[cH-]c1` [Compound 1, Titanocene dichloride, reference compound], the “% Cp hydrolysis” value in data set [1] is 0%. For the same molecule, the “Time the Cp rings remain metal bound” value in data set [1] (in water, low pH after halide hydrolysis) was “over 24 h”. Also, the LD50 in data set [2] (Table 1, Cp2TiX2) was 100 mg/kg. Moreover, in data set [3] (Table 1, Cp2TiX2), the “Optimum Cure Rate (%)” value is listed as 100% and the Optimum dose range is 40-60 mg/kcj.

As to `[F][Ti+2][F].c1cc[cH-]c1.c1cc[cH-]c1` [Compound 2], the LD50 in data set [2] (Table 1, Cp2TiX2) is on record as 60 mg/kg. In data set [3] (Table 1, Cp2TiX2), the “Optimum Cure Rate (%)” value was 100% and the Optimum dose range is 40 mg/kcj.

Turning to `[Br][Ti+2][Br].c1cc[cH-]c1.c1cc[cH-]c1` [Compound 3], the LD50 in data set [2] (Table 1, Cp2TiX2) is reported as 135 mg/kg. The “Optimum Cure Rate (%)” value in data set [3] (Table 1, Cp2TiX2) is recorded as 100%.

With `[I][Ti+2][I].c1cc[cH-]c1.c1cc[cH-]c1` [Compound 4], the LD50 in data set [2] (Table 1, Cp2TiX2) was 145 mg/kg. Moreover, in data set [3] (Table 1, Cp2TiX2), the “Optimum Cure Rate (%)” value is on record as 100% and the Optimum dose range is reported as 60-100 mg/kcj.

Turning to `S=C=[N][Ti+2][N]=C=S.c1cc[cH-]c1.c1cc[cH-]c1` [Compound 5], the LD50 in data set [2] (Table 1, Cp2TiX2) is reported as 135 mg/kg. Further, in data set [3] (Table 1, Cp2TiX2), the “Optimum Cure Rate (%)” value is 100% and the Optimum dose range is reported as 80 mg/kcj.

Consider `O=C(O)C(Cl)(Cl)Cl.O=C(O)C(Cl)(Cl)Cl.[Ti+2].c1cc[cH-]c1.c1cc[cH-]c1` [Compound 8, titanocene bis(trichloroacetate)], for which the Aqueous solubility entry is recorded as “poor”. Besides, the LD50 in data set [2] (Table 1, Cp2TiX2) was 440 mg/kg. For the same molecule, in data set [3] (Table 1, Cp2TiX2), the “Optimum Cure Rate (%)” value is reported as 100% and the Optimum dose range was 100-360 mg/kcj.

Take `O=C(O)/C=C\C(=O)[O][Ti+2][O]C(=O)/C=C\C(=O)O.c1cc[cH-]c1.c1cc[cH-]c1` [Compound 9]: the Aqueous solubility entry is “increase in aqueous solubility”. Moreover, the LD50 in data set [2] (Table 1, Cp2TiX2) is 170 mg/kg. Besides, in data set [3] (Table 1, Cp2TiX2), the “Optimum Cure Rate (%)” value is 100% and the Optimum dose range is reported as 60-120 mg/kcj.

As for `O=[N+]([O-])c1ccc([O][Ti+2][O]c2ccc([N+](=O)[O-])cc2)cc1.c1cc[cH-]c1.c1cc[cH-]c1` [Compound 10], the LD50 in data set [2] (Table 1, Cp2TiX2) is 260 mg/kg. In data set [3] (Table 1, Cp2TiX2), the “Optimum Cure Rate (%)” value is 10% and the Optimum dose range is listed as 180-240 mg/kcj.

With `Fc1c(F)c(F)c([O][Ti+2][O]c2c(F)c(F)c(F)c(F)c2F)c(F)c1F.c1cc[cH-]c1.c1cc[cH-]c1` [Compound 11], the LD50 in data set [2] (Table 1, Cp2TiX2) is on record as 480 mg/kg. Besides, in data set [3] (Table 1, Cp2TiX2), the “Optimum Cure Rate (%)” value is reported as 100% and the Optimum dose range is on record as 340-360 mg/kcj.

With `Fc1c(F)c(F)c([S][Ti+2][S]c2c(F)c(F)c(F)c(F)c2F)c(F)c1F.c1cc[cH-]c1.c1cc[cH-]c1` [Compound 12], the LD50 in data set [2] (Table 1, Cp2TiX2) is reported as 260 mg/kg. Also, in data set [3] (Table 1, Cp2TiX2), the “Optimum Cure Rate (%)” value was 100% and the Optimum dose range is listed as 120-180 mg/kcj.

`[Cl-].[Cl-].[NH3+]CC(=O)[O][Ti+2][O]C(=O)C[NH3+].c1cc[cH-]c1.c1cc[cH-]c1` [Compound 13, titanocene bis(glycine)]: in data set [1], the “% Cp hydrolysis” value is on record as less than 2%. Besides, the LD50 in data set [2] (Table 1, Cp2TiX2) is recorded as greater than 160 mg/kg. Moreover, the “Optimum Cure Rate (%)” value in data set [3] (Table 1, Cp2TiX2) is on record as 50%.

For the molecule `C[C@H]([NH3+])C(=O)[O][Ti+2][O]C(=O)[C@H](C)[NH3+].[Cl-].[Cl-].c1cc[cH-]c1.c1cc[cH-]c1` [Compound 14], the Aqueous solubility result is recorded as “highly water soluble”. Further, the LD50 in data set [2] (Table 1, Cp2TiX2) is 185 mg/kg. In addition, in data set [3] (Table 1, Cp2TiX2), the “Optimum Cure Rate (%)” value is reported as 50% and the Optimum dose range is recorded as 160 mg/kcj.

As for `[Cl][Ti+2][O]c1ccc(Cl)c(Cl)c1Cl.c1cc[cH-]c1.c1cc[cH-]c1` [Compound 15], the LD50 in data set [2] (Table 2, Cp2TiClX) is 200 mg/kg. For the same molecule, in data set [3] (Table 2, Cp2TiClX), the “Optimum Cure Rate (%)” value is recorded as 50% and the Optimum dose range is 60 to 140 mg/kg.

Turning to `Cc1ccccc1[S][Ti+2][Cl].c1cc[cH-]c1.c1cc[cH-]c1` [Compound 16], in data set [3] (Table 2, Cp2TiClX), the “Optimum Cure Rate (%)” value is 25% and the Optimum dose range was 30 to 60 mg/kg.

Take `Nc1ccccc1[S][Ti+2][Cl].c1cc[cH-]c1.c1cc[cH-]c1` [Compound 17]: the LD50 in data set [2] (Table 2, Cp2TiClX) is recorded as 100 mg/kg. Further, the “Optimum Cure Rate (%)” value in data set [3] (Table 2, Cp2TiClX) is on record as 13%.

Take `[Cl][Ti+]([Cl])[Cl].c1cc[cH-]c1` [CpTiCI3, reference compound]: in data set [3] (partially hydrolysed derivative lacking one Cp ring), the Antitumour activity result is given as “reduced activity”.
